# Assay results: publication PMC12380092, “Chemoenzymatic total synthesis of the antibiotic (−)-13-deoxytetrodecamycin using the Diels–Alderase TedJ” (Chemical Science, 2025)
# Molecular target: T1, TedJ (Streptomyces sp. WAC04657, UniProt Z9VZN5SQU4)
# T1 construct: N-terminal hexa-histidine tag, recombinant in E. coli, purified; homodimer
# T1 sequence (Z9VZN5SQU4 20-510): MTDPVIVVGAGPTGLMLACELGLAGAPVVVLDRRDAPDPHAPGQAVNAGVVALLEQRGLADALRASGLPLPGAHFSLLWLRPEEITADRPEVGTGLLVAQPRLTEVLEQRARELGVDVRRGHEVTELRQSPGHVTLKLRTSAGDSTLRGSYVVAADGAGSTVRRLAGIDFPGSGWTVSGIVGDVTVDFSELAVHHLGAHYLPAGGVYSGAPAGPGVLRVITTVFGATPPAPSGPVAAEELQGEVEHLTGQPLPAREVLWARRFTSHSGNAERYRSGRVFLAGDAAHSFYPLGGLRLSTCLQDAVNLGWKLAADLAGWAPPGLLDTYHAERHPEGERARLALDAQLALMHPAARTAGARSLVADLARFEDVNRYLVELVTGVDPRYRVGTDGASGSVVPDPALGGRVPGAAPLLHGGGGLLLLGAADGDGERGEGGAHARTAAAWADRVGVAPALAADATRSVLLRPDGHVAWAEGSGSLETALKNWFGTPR
# Assay: X-ray crystal structure ([…] Å); MS of denatured protein; absorbance spectrum
# Type: binding
# Conditions: non-covalently bound, co-purified; proposed structural role
structure (smiles),measurement,value
Cc1cc2nc3c(=O)[nH]c(=O)nc-3n(C[C@H](O)[C@H](O)[C@H](O)COP(=O)(O)OP(=O)(O)OC[C@H]3O[C@@H](n4cnc5c(N)ncnc54)[C@H](O)[C@@H]3O)c2cc1C [FAD],X-ray crystal structure (1.6 Å); MS of denatured protein; absorbance spectrum,showing the enzyme active site and non-covalently bound FAD molecule
